“And” between values parts separate entries of the source, which are not always exact repeats. Identical values can stand only once.
Experiments:
SW620 cells = assay: WST-8 cytotoxicity assay, SW620; settings: for IC50: read-out: IC50 SW620, human colon cancer cell, 72 h, mean ± SE (n = 3)
Protocol: (§1) With a range of chromophore analogues in hand, their toxicity to SW620 cells was investigated by WST assays.
(§2) Basically, the evaluation was performed using methods previously reported by our group[20],[23]. Cytotoxic activities of compounds against MIA PaCa-2 (American Type Culture Collection), SW620 (European Collection of Authenticated Cell Cultures) were measured by WST-8 assay according to manufacturer’s protocol. Briefly, cells (1 × 10^4 cells/well) in a 96-well plate were cultured in medium (for MIA PaCa-2, D-MEM (Wako, Japan) containing 10% fetal bovine serum (Funakoshi, Japan), 100 units/mL penicillin G and 100 µg/mL streptomycin (Wako, Japan), for SW620, RPMI-1640 (Wako, Japan) containing 10% fetal bovine serum, 100 units/mL penicillin G and 100 µg/mL streptomycin) were cultured at 37 °C for 24 h under 5% CO2 atmosphere. Then, cells were treated with test compounds (final DMSO concentration was 1%) at 37 °C for 72 h under 5% CO2 atmosphere. Then, cells were treated with a solution of Cell Counting Kit-8® (Dojindo, Japan) for 3 h. After that, cell viabilities were determined based on the measurement of absorption at 450 nm of the wells by using TECAN Infinite® M200 microplate reader. The results were expressed as a percentage of the negative control (cells treated with DMSO only), and that value was fixed at 100%.

MIA PaCa-2 cells = settings: read-out: IC50 MIA PaCa-2; human pancreatic carcinoma cell, 72 h, mean ± SE (n = 3)
Protocol: as §1, §2

For `CC(C)[C@H]1C(=O)OC[C@@H](NC(=O)c2cnc3ccccc3n2)C(=O)N[C@@H](C)C(=O)N(C)[C@H]2CSC[C@@H](C(=O)N1C)N(C)C(=O)[C@H](C)NC(=O)[C@H](NC(=O)c1cnc3ccccc3n1)COC(=O)[C@H](C(C)C)N(C)C2=O` [Compound 2], the IC50 (SW620 cells) was 0.026 µM and 0.0256 µM and the IC50 (MIA PaCa-2 cells) was 0.0081 ± 0.001 µM.

For `CC(C)[C@H]1C(=O)OC[C@@H](NC(=O)c2ccc3ccccc3n2)C(=O)N[C@@H](C)C(=O)N(C)[C@H]2CSC[C@@H](C(=O)N1C)N(C)C(=O)[C@H](C)NC(=O)[C@H](NC(=O)c1ccc3ccccc3n1)COC(=O)[C@H](C(C)C)N(C)C2=O` [Compound 4], the “cytotoxicity to SW620 cells (in words)” value (SW620 cells) was “slightly better cytotoxicity than 2”, the IC50 (SW620 cells) was 0.0205 ± 0.0031 µM and the IC50 (MIA PaCa-2 cells) was 0.0058 ± 0.0009 µM.

`CC(C)[C@H]1C(=O)OC[C@@H](NC(=O)c2cnc3ccccc3c2)C(=O)N[C@@H](C)C(=O)N(C)[C@H]2CSC[C@@H](C(=O)N1C)N(C)C(=O)[C@H](C)NC(=O)[C@H](NC(=O)c1cnc3ccccc3c1)COC(=O)[C@H](C(C)C)N(C)C2=O` [Compound 5, {N-(Quinoline-3-carbonyl)-D-Ser-L-Ala-N-Boc-N-Me-L-Cys-N-Me-L-Val}2 sulfide] showed an IC50 (SW620 cells) of 1.21 ± 0.035 µM and an IC50 (MIA PaCa-2 cells) of 0.399 ± 0.076 µM.

`CC(C)[C@H]1C(=O)OC[C@@H](NC(=O)c2ccc3ncccc3c2)C(=O)N[C@@H](C)C(=O)N(C)[C@H]2CSC[C@@H](C(=O)N1C)N(C)C(=O)[C@H](C)NC(=O)[C@H](NC(=O)c1ccc3ncccc3c1)COC(=O)[C@H](C(C)C)N(C)C2=O` [Compound 6, {N-(Quinoline-6-carbonyl)-D-Ser-L-Ala-N-Boc-N-Me-L-Cys-N-Me-L-Val}2 sulfide] showed an IC50 (SW620 cells) of 1.19 ± 0.187 µM and an IC50 (MIA PaCa-2 cells) of 0.327 ± 0.066 µM.

In the case of `CC(C)[C@H]1C(=O)OC[C@@H](NC(=O)c2ccc3ccccc3c2)C(=O)N[C@@H](C)C(=O)N(C)[C@H]2CSC[C@@H](C(=O)N1C)N(C)C(=O)[C@H](C)NC(=O)[C@H](NC(=O)c1ccc3ccccc3c1)COC(=O)[C@H](C(C)C)N(C)C2=O` [Compound 7, {N-(Naphthalene-2-carbonyl)-D-Ser-L-Ala-N-Boc-N-Me-L-Cys-N-Me-L-Val}2 sulfide], the “cytotoxicity to SW620 cells (in words)” value (SW620 cells) is reported as “completely diminished activity”, the IC50 (SW620 cells) is reported as over 10 µM and the IC50 (MIA PaCa-2 cells) is reported as over 10 µM.

`CC(C)[C@H]1C(=O)OC[C@@H](NC(=O)c2cc3ccccc3[nH]2)C(=O)N[C@@H](C)C(=O)N(C)[C@H]2CSC[C@@H](C(=O)N1C)N(C)C(=O)[C@H](C)NC(=O)[C@H](NC(=O)c1cc3ccccc3[nH]1)COC(=O)[C@H](C(C)C)N(C)C2=O` [Compound 8, {N-(Indol-2-carbonyl)-D-Ser-L-Ala-N-Boc-N-Me-L-Cys-N-Me-L-Val}2 sulfide] showed an IC50 (SW620 cells) of over 10 µM and an IC50 (MIA PaCa-2 cells) of over 10 µM.

`CC(C)[C@H]1C(=O)OC[C@@H](NC(=O)c2c[nH]c3ccccc23)C(=O)N[C@@H](C)C(=O)N(C)[C@H]2CSC[C@@H](C(=O)N1C)N(C)C(=O)[C@H](C)NC(=O)[C@H](NC(=O)c1c[nH]c3ccccc13)COC(=O)[C@H](C(C)C)N(C)C2=O` [Compound 9, {N-(Indol-3-carbonyl)-D-Ser-L-Ala-N-Boc-N-Me-L-Cys-N-Me-L-Val}2 sulfide] gave an IC50 (SW620 cells) of over 10 µM and an IC50 (MIA PaCa-2 cells) of over 10 µM.

In the case of `CC(C)[C@H]1C(=O)OC[C@@H](NC(=O)c2ccc3[nH]ccc3c2)C(=O)N[C@@H](C)C(=O)N(C)[C@H]2CSC[C@@H](C(=O)N1C)N(C)C(=O)[C@H](C)NC(=O)[C@H](NC(=O)c1ccc3[nH]ccc3c1)COC(=O)[C@H](C(C)C)N(C)C2=O` [Compound 10, {N-(Indol-5-carbonyl)-D-Ser-L-Ala-N-Boc-N-Me-L-Cys-N-Me-L-Val}2 sulfide], the IC50 (SW620 cells) is reported as over 10 µM and the IC50 (MIA PaCa-2 cells) is reported as over 10 µM.

For `CC(C)[C@H]1C(=O)OC[C@@H](NC(=O)c2ccc3cc[nH]c3c2)C(=O)N[C@@H](C)C(=O)N(C)[C@H]2CSC[C@@H](C(=O)N1C)N(C)C(=O)[C@H](C)NC(=O)[C@H](NC(=O)c1ccc3cc[nH]c3c1)COC(=O)[C@H](C(C)C)N(C)C2=O` [Compound 11, {N-(Indol-6-carbonyl)-D-Ser-L-Ala-N-Boc-N-Me-L-Cys-N-Me-L-Val}2 sulfide], the IC50 (SW620 cells) was over 10 µM and the IC50 (MIA PaCa-2 cells) was over 10 µM.

Compound `CC(C)[C@H]1C(=O)OC[C@@H](NC(=O)c2cccc3cc[nH]c23)C(=O)N[C@@H](C)C(=O)N(C)[C@H]2CSC[C@@H](C(=O)N1C)N(C)C(=O)[C@H](C)NC(=O)[C@H](NC(=O)c1cccc3cc[nH]c13)COC(=O)[C@H](C(C)C)N(C)C2=O` [Compound 12, {N-(Indol-7-carbonyl)-D-Ser-L-Ala-N-Boc-N-Me-L-Cys-N-Me-L-Val}2 sulfide] has an IC50 (SW620 cells) of over 10 µM and an IC50 (MIA PaCa-2 cells) of over 10 µM.

Work on `CC(C)[C@H]1C(=O)OC[C@@H](NC(=O)c2cc3ccccc3o2)C(=O)N[C@@H](C)C(=O)N(C)[C@H]2CSC[C@@H](C(=O)N1C)N(C)C(=O)[C@H](C)NC(=O)[C@H](NC(=O)c1cc3ccccc3o1)COC(=O)[C@H](C(C)C)N(C)C2=O` [Compound 13, {N-(Benzofurane-2-carbonyl)-D-Ser-L-Ala-N-Boc-N-Me-L-Cys-N-Me-L-Val}2 sulfide] yielded an IC50 (SW620 cells) of over 10 µM and an IC50 (MIA PaCa-2 cells) of over 10 µM.

`CC(C)[C@H]1C(=O)OC[C@@H](NC(=O)c2cc3ccccc3s2)C(=O)N[C@@H](C)C(=O)N(C)[C@H]2CSC[C@@H](C(=O)N1C)N(C)C(=O)[C@H](C)NC(=O)[C@H](NC(=O)c1cc3ccccc3s1)COC(=O)[C@H](C(C)C)N(C)C2=O` [Compound 14, {N-(Benzothiophene-2-carbonyl)-D-Ser-L-Ala-N-Boc-N-Me-L-Cys-N-Me-L-Val}2 sulfide] gave an IC50 (SW620 cells) of over 10 µM and an IC50 (MIA PaCa-2 cells) of over 10 µM.

Compound `CC(C)[C@H]1C(=O)OC[C@@H](NC(=O)c2ccc3ocnc3c2)C(=O)N[C@@H](C)C(=O)N(C)[C@H]2CSC[C@@H](C(=O)N1C)N(C)C(=O)[C@H](C)NC(=O)[C@H](NC(=O)c1ccc3ocnc3c1)COC(=O)[C@H](C(C)C)N(C)C2=O` [Compound 15, {N-(Benzoxazole-5-carbonyl)-D-Ser-L-Ala-N-Boc-N-Me-L-Cys-N-Me-L-Val}2 sulfide] has an IC50 (SW620 cells) of over 10 µM and an IC50 (MIA PaCa-2 cells) of over 10 µM.

`CC(C)[C@H]1C(=O)OC[C@@H](NC(=O)c2ccc3ncoc3c2)C(=O)N[C@@H](C)C(=O)N(C)[C@H]2CSC[C@@H](C(=O)N1C)N(C)C(=O)[C@H](C)NC(=O)[C@H](NC(=O)c1ccc3ncoc3c1)COC(=O)[C@H](C(C)C)N(C)C2=O` [Compound 16, {N-(Benzoxazole-6-carbonyl)-D-Ser-L-Ala-N-Boc-N-Me-L-Cys-N-Me-L-Val}2 sulfide] was tested, and the IC50 (SW620 cells) was over 10 µM and the IC50 (MIA PaCa-2 cells) was over 10 µM.

`CC(C)[C@H]1C(=O)OC[C@@H](NC(=O)c2ccc3ncsc3c2)C(=O)N[C@@H](C)C(=O)N(C)[C@H]2CSC[C@@H](C(=O)N1C)N(C)C(=O)[C@H](C)NC(=O)[C@H](NC(=O)c1ccc3ncsc3c1)COC(=O)[C@H](C(C)C)N(C)C2=O` [Compound 17] gave an IC50 (SW620 cells) of over 10 µM and an IC50 (MIA PaCa-2 cells) of over 10 µM.

In the case of `CC(C)[C@H]1C(=O)OC[C@@H](NC(=O)c2ccc(C(=O)c3ccccc3)cc2)C(=O)N[C@@H](C)C(=O)N(C)[C@H]2CSC[C@@H](C(=O)N1C)N(C)C(=O)[C@H](C)NC(=O)[C@H](NC(=O)c1ccc(C(=O)c3ccccc3)cc1)COC(=O)[C@H](C(C)C)N(C)C2=O` [Compound 18, {N-(4-Benzoylphenylcarbonyl)-D-Ser-L-Ala-N-Boc-N-Me-L-Cys-N-Me-L-Val}2 sulfide], the “cytotoxicity to SW620 cells (in words)” value (SW620 cells) is reported as “lost their cytotoxicity”, the IC50 (SW620 cells) is reported as over 10 µM and the IC50 (MIA PaCa-2 cells) is reported as over 10 µM.

With `CC(C)[C@H]1C(=O)OC[C@@H](NC(=O)c2ccc3c(c2)C(=O)c2ccccc2C3=O)C(=O)N[C@@H](C)C(=O)N(C)[C@H]2CSC[C@@H](C(=O)N1C)N(C)C(=O)[C@H](C)NC(=O)[C@H](NC(=O)c1ccc3c(c1)C(=O)c1ccccc1C3=O)COC(=O)[C@H](C(C)C)N(C)C2=O` [Compound 19, {N-(Anthraquinone-2carbonyl)-D-Ser-L-Ala-N-Boc-N-Me-L-Cys-N-Me-L-Val}2 sulfide] the “cytotoxicity to SW620 cells (in words)” value (SW620 cells) was “lost their cytotoxicity”, the IC50 (SW620 cells) was over 10 µM and the IC50 (MIA PaCa-2 cells) was over 10 µM.

With `CC(C)[C@H]1C(=O)OC[C@@H](NC(=O)c2cnccn2)C(=O)N[C@@H](C)C(=O)N(C)[C@H]2CSC[C@@H](C(=O)N1C)N(C)C(=O)[C@H](C)NC(=O)[C@H](NC(=O)c1cnccn1)COC(=O)[C@H](C(C)C)N(C)C2=O` [Compound 20, {N-(Pyradine-2carbonyl)-D-Ser-L-Ala-N-Boc-N-Me-L-Cys-N-Me-L-Val}2 sulfide] the “cytotoxicity to SW620 cells (in words)” value (SW620 cells) was “lost their cytotoxicity”.

— PMC10985088, “Synthesis and biological evaluation of echinomycin analogues as potential colon cancer agent” (Scientific Reports, 2024)
